“And” between values parts separate entries of the source, which are not always exact repeats. Identical values can stand only once.
Conditions: 283.15 K, Liquid, Vibrating tube method

CCCCCC(=O)OCC(COC(=O)CCCCC)(COC(=O)CCCCC)COC(=O)CCCCC [pentaerythritol tetrahexanoate]
Conditions	mass density
9284.9 kPa	1009.6 kg/m3
9306.2 kPa	1009.5 kg/m3
9324.2 kPa	1009.5 kg/m3
9341.7 kPa	1009.5 kg/m3
9359.5 kPa	1009.5 kg/m3
9380.7 kPa	1009.4 kg/m3
9398.1 kPa	1009.6 kg/m3
9416 kPa	1009.6 kg/m3
9436.7 kPa	1009.6 kg/m3
9454.6 kPa	1009.6 kg/m3
9473 kPa	1009.6 kg/m3
9490.6 kPa	1009.6 kg/m3
9508.2 kPa	1009.7 kg/m3
9529 kPa	1009.7 kg/m3
9546.3 kPa	1009.7 kg/m3
9563.7 kPa	1009.7 kg/m3
9585 kPa	1009.7 kg/m3
9602.4 kPa	1009.6 kg/m3
9623.6 kPa	1009.7 kg/m3
9642.2 kPa	1009.7 kg/m3
9660.2 kPa	1009.7 kg/m3
9681 kPa	1009.8 kg/m3
9690.2 kPa	1009.7 kg/m3
9690.5 kPa	1009.7 kg/m3
9691 kPa	1009.8 kg/m3
9691.2 kPa	1009.9 kg/m3
9691.4 kPa	1009.8 kg/m3
9691.5 kPa	1009.7 kg/m3
9691.6 kPa	1009.8 kg/m3
9691.9 kPa	1009.7 kg/m3
9692 kPa	1009.8 kg/m3
9692.1 kPa	1009.6 kg/m3
9692.4 kPa	1009.7 kg/m3
9692.6 kPa	1009.8 kg/m3
9692.8 kPa	1009.7 kg/m3
9693.3 kPa	1009.8 kg/m3
9693.4 kPa	1009.8 kg/m3
9693.8 kPa	1009.8 kg/m3
9693.9 kPa	1009.8 kg/m3
9694.3 kPa	1009.8 kg/m3
9694.5 kPa	1009.8 kg/m3
9695 kPa	1009.8 kg/m3
9695.1 kPa	1009.9 kg/m3
9695.3 kPa	1009.9 kg/m3
9695.7 kPa	1009.7 kg/m3 and 1009.8 kg/m3
9695.8 kPa	1009.9 kg/m3
9696.2 kPa	1009.8 kg/m3
9696.4 kPa	1009.8 kg/m3
9696.5 kPa	1009.8 kg/m3
9696.7 kPa	1009.8 kg/m3
9696.9 kPa	1009.8 kg/m3
9697.2 kPa	1009.8 kg/m3
9697.6 kPa	1009.8 kg/m3
9698.1 kPa	1009.5 kg/m3 and 1009.8 kg/m3
9698.2 kPa	1009.8 kg/m3
9698.3 kPa	1009.9 kg/m3
9698.9 kPa	1009.7 kg/m3
9699 kPa	1009.7 kg/m3
9699.1 kPa	1009.7 kg/m3
9699.3 kPa	1009.7 kg/m3
9699.6 kPa	1009.7 kg/m3
9699.8 kPa	1009.7 kg/m3 and 1009.9 kg/m3
9700 kPa	1009.8 kg/m3 and 1009.6 kg/m3
9700.1 kPa	1009.8 kg/m3 and 1009.7 kg/m3
9700.3 kPa	1009.7 kg/m3 and 1009.8 kg/m3
9700.7 kPa	1009.7 kg/m3
9700.8 kPa	1009.7 kg/m3
9701 kPa	1009.7 kg/m3
9701.5 kPa	1009.8 kg/m3 and 1009.7 kg/m3
9701.7 kPa	1009.8 kg/m3
9754.8 kPa	1009.8 kg/m3
9769.2 kPa	1009.7 kg/m3
9783.6 kPa	1009.8 kg/m3
9797.3 kPa	1009.7 kg/m3
9814.5 kPa	1009.7 kg/m3
9828.7 kPa	1009.8 kg/m3
9845.7 kPa	1009.7 kg/m3
9859.7 kPa	1009.8 kg/m3
9874.3 kPa	1009.8 kg/m3
9888.8 kPa	1009.8 kg/m3
9905.8 kPa	1009.8 kg/m3
9919.9 kPa	1009.9 kg/m3
9934.6 kPa	1009.9 kg/m3
9951.8 kPa	1009.9 kg/m3
9966.6 kPa	1009.9 kg/m3
9984 kPa	1009.8 kg/m3
9998.7 kPa	1009.8 kg/m3
10013 kPa	1009.9 kg/m3
10027 kPa	1010 kg/m3
10045 kPa	1009.8 kg/m3
10060 kPa	1009.9 kg/m3
10074 kPa	1009.9 kg/m3
10091 kPa	1010 kg/m3
10106 kPa	1010 kg/m3
10120 kPa	1009.9 kg/m3
10135 kPa	1009.9 kg/m3
10152 kPa	1010 kg/m3
10166 kPa	1010 kg/m3
10181 kPa	1010 kg/m3
10195 kPa	1010 kg/m3
10212 kPa	1010.1 kg/m3
10226 kPa	1010.1 kg/m3
10244 kPa	1010 kg/m3
10258 kPa	1010 kg/m3
10273 kPa	1010 kg/m3
10288 kPa	1009.9 kg/m3
10305 kPa	1010.1 kg/m3
10320 kPa	1010 kg/m3
10334 kPa	1010.1 kg/m3
10352 kPa	1010.1 kg/m3
10367 kPa	1010.2 kg/m3
10382 kPa	1010.1 kg/m3
10400 kPa	1010.1 kg/m3
10415 kPa	1010.2 kg/m3
10430 kPa	1010.1 kg/m3
10445 kPa	1010.1 kg/m3
10463 kPa	1010.2 kg/m3
10478 kPa	1010.2 kg/m3
10496 kPa	1010.1 kg/m3
10511 kPa	1010.2 kg/m3
10526 kPa	1010.1 kg/m3
10541 kPa	1010.3 kg/m3
10559 kPa	1010.2 kg/m3
10575 kPa	1010.3 kg/m3
10590 kPa	1010.2 kg/m3
10608 kPa	1010.2 kg/m3
10622 kPa	1010.3 kg/m3
10638 kPa	1010.2 kg/m3
10656 kPa	1010.3 kg/m3
10671 kPa	1010.4 kg/m3
10686 kPa	1010.3 kg/m3
10704 kPa	1010.4 kg/m3
10719 kPa	1010.2 kg/m3
10733 kPa	1010.3 kg/m3
10749 kPa	1010.2 kg/m3
10766 kPa	1010.3 kg/m3
10780 kPa	1010.3 kg/m3
10798 kPa	1010.3 kg/m3
10812 kPa	1010.4 kg/m3
10826 kPa	1010.4 kg/m3
10840 kPa	1010.4 kg/m3
10858 kPa	1010.4 kg/m3
10872 kPa	1010.3 kg/m3
10887 kPa	1010.4 kg/m3
10904 kPa	1010.4 kg/m3

— the NIST ThermoML archive (doi:10.1021/je060271a)
